# Entries after “also recorded” stand apart in the source; their conditions may differ. Read-outs that look alike come from different tables or passages of the source.
# Assays:
# [1] = tested on: normal cell lines PrEC, HMEC, WI38 and cancer cell lines DU145, MDA-MB-435, HT-29; test: Cancer cell selectivity, IC90 in normal versus cancer cell lines (XTT); format: cell-based, human; settings: average IC90 of all normal / average IC90 of all cancer cell lines, 6 to 7 days
# Source text: An exemplary method of assessing the differential sensitivity between normal and cancer cells for a compound has been described by Vassilev et al. (Anti-Cancer Drug Design (2001) 16:7). This method involves the comparison of IC90 values, i.e. the molar concentration of a test compound required to cause 90% growth inhibition of exponentially growing cells. Thus, the IC90 values for candidate compounds can be evaluated in various cancer cell lines (such as those outlined above) and normal cells (such as HUVEC and/or WI38 cells) and compared. IC90 values can be measured using a variety of standard techniques as known in the art. Cancer cell selectivity is calculated as a ratio between the average IC90 for all normal cell lines and the average IC90 for all cancer cell lines. Compounds with an IC90 ratio (normal/cancer) of >4 are considered to be selective for cancer cells (L. T. Vassilev et al., Anti-cancer Drug Design, 2001, 16: 7-17).
# The normal cells lines used were PrEC (prostate), HMEC (breast), and WI38 (lung fibroblast) cell lines and the cancer cells lines were DU145 (prostate), MDA-MB-435 (breast), HT-29 (colon). IC90 values were also determined for the controls doxorubicin and etoposide. The cells were cultured as generally described in Example 13. Various concentrations of the compounds were incubated with the cells for 6 to 7 days, and the number of proliferating cells was measured using the XTT assay. Cancer cell selectivity was calculated as a ratio between the average IC90 for all normal and the average IC90 for all cancer cell lines.
# [2] = format: in vivo; settings: i.p. twice per day for 1 week
# Description: To test the sub-acute toxicity of the compounds of Formula I, female mice were injected with the compounds and toxicity was evaluated based on mortality, changes in behaviour, appearance and weight. Briefly, ICR normal female mice (5-6 weeks old; n=33) weighing about 0.020 kg in body weight, were injected with various compounds at 100 mg/kg and 50 mg/kg or with the vehicle alone (Lutrol (M68, micronized)). Groups of 3 ICR female mice were injected with one intra-peritoneal (i.p.) injection of 250 μl of each compound at 4.0 mg/ml twice per day (100 mg/kg) for 1 week (Group I); or with one intra-peritoneal (i.p.) injection of 250 μl of each compound at 2.0 mg/ml twice per day (50 mg/kg) for 1 week (Group II), or with one intra-peritoneal (i.p.) injection of 250 μl of lutrol vehicle control twice per day for 1 week (Control Group).
# The compounds to be tested were prepared to provide enough for one week at concentrations of 4.0 mg/ml and 2.0 mg/ml. Briefly, 50 mg of each compound was dissolved in 1.25 ml of 100% DMSO and diluted with 6.25 ml of Lutrol (30% in water) and 5 ml water, to prepare a solution of 4 mg/ml compound in 15% Lutrol in water. Next, 4 ml of each prepared solution was further diluted with 4 ml of 15% Lutrol in water to provide the 2.0 mg/ml solution of each compound. For the vehicle control solution, 8 ml of 15% Lutrol in water was prepared. Compounds at concentrations of 4.0 mg/ml and 2.0 mg/ml and the vehicle control were administered as described above.
# [3] = tested on: human colon carcinoma HT-29 cells; test: XTT cell proliferation assay, HT-29; format: cell-based; settings: Homo sapiens, HT-29, XTT, read-out: IC50
# Description: The ability of compounds of Formula I to inhibit the proliferation of human colon carcinoma HT-29 cells was tested as follows. HT-29 colon carcinoma cells used in this example and subsequent examples were maintained as a monolayer in a growth medium; McCoy's 5A modified medium (Sigma, St. Louis, Mo.), supplemented with 2 mM L-glutamine (Gibco, Grand Island, N.Y.), 10% fetal bovine serum (FBS) (Multicell, WISENT Inc. St-Bruno, QC), antibiotic-antimycotic (Multicell), at 37° C. in a 5% CO2-humidified incubator. Cells were transferred onto 150 mm tissue culture plates and grown until sub-confluency (70-80%) prior to their use. The in vitro antiproliferative activity of compounds was evaluated by incubating the cells with varying concentrations of the compounds as shown in Table 1 for 6-7 days. The efficacy of these compounds in this cell proliferation assay was measured based in the ability of live cells to reduce the tetrazolium salt XTT to orange colored compounds of formazan (XTT cell proliferation kit II, Roche Applied Science, Montreal, QC).
# The ability of compounds of Formula I to inhibit the proliferation of human colon carcinoma HT-29 cells was tested as described above in Example 13.
# Cell growth inhibition IC50 (μM) by compounds of Formula I was tested on various cancer cell types by XTT cell proliferation assay. The growth inhibitory effects of the compounds of Formula I as shown below for the melanoma cell line SK-MEL-2 were reproducible by Lorus Therapeutics Inc.
# HT-29 cells = test: Effect of exogenous metals on growth inhibition of HT-29 cells (XTT); format: cell-based, human; settings: HT-29, 5 days
# Description: To determine whether metal chelation is involved in the growth inhibitory activity of compounds of Formula I, exogenous metals (ZnCl2, FeCl2.4H2O, FeCl3.4H2O, MgCl2, at 100 μM) were incubated with HT-29 cells, simultaneously with control vehicle DMSO, compound 3 (5 μM), or compound 13 (25 μM), for 5 days. […] Growth inhibition by compound 13 is predicted to occur through a different mechanism than compound 3.
# To determine whether chelation of copper is involved in the growth inhibitory activity of compounds of Formula I, HT-29 cells were incubated with up to 5 μM of compound 3, in the presence or absence of 25 μM CuSO4.5H20 for 5 days.
# To determine whether metal chelation is involved in the growth inhibitory activity of compound 3, various concentrations of exogenous metals were incubated with HT-29 cells, simultaneously with various concentrations of compound 3, for 5 days. The exogenous metals tested were: ZnCl2 (zinc), CuSO4.5H20 (copper), FeCl2 (iron II), FeCl3.4H20 (iron III), MgCl2 (magnesium), and CaCl2.2H20 (calcium). HT-29 cells (4×10^3/well) in 100 μL volume of the growth medium were seeded in 96-well cell culture plates and incubated overnight at 37° C. The medium was removed and replaced with a total volume of 100 μl growth medium containing concentrations of metal ions as shown in FIG. 5 with compound 3 or 0.1% DMSO vehicle control. After incubation of the cells at 37° C. for 5 days, cell viability was quantitated using the XTT (sodium 3′-[1-(phenylamino-carbonyl)-3,4-tetrazolium}-bis (4-methoxy-6-nitro) benzene sulfonic acid hydrate) calorimetric assay (Roche Applied Science, Penzberg, Germany). XTT labeling reagent (1 mg/mL) was mixed with electron-coupling reagent, following the manufacturer's instructions, and 50 μl of the mixture was added directly to the cells cultured in 100 μl growth medium. The plates were further incubated at 37° C. for 4 hours and the absorbance of each well was measured by a multi-well spectrophotometer (Bio-Tek Instruments Inc.) at 460 nm. The data were adjusted relative to the blank, and were expressed as % of cell growth compared to the DMSO control.
# To determine the ability of compounds 5 and 7 to chelate metals in cells, exogenous metals were added to HT-29 cells, simultaneously with various concentrations of compounds 5 and 7. Briefly, HT-29 cells were treated with various concentrations compounds 5 and 7, plus or minus copper (25 μM CuSO4.5H20) or zinc (100 μM of ZnCl2), for 5 days. Cell viability was determined by XTT assay. The effects of copper and zinc on growth inhibition of HT-29 cells are shown in FIG. 6A for compound 5 and in FIG. 6B for compound 7.
# Effect of metal ion supplements on compound 3-mediated cell growth inhibition of HT-29 cells was examined by XTT cell proliferation assay.
# [4] = tested on: human lung NCI-H460 cells; test: Large-cell lung carcinoma NCI-H460 xenograft model, tumour growth; format: in vivo, CD-1 female nude mice; settings: Lutrol (i.p.), lipid-based (i.v.) or water-based (i.p.) formulations
# Description: The ability of compounds of Formula I to inhibit large-cell lung tumour growth in vivo was tested by determining the efficacy of compound 3 in a xenograft model as described below. Compound 3 was tested as a lipid-based formulation having the following composition: distearoylphosphatidylethanolamine-polyethylene glycol 2000 (DSPE-PEG/5% mole) and egg phosphatidylcoline (ePC/95% mole). The formulation was prepared as follows: Stock solutions of compound 3 and lipid (ePC and DSPE-PEG) were prepared in DMF. Specific volumes of the stock solutions of compound 3 and lipid were then mixed in order to achieve a final lipid concentration of 25 mg/mL (ePC:DSPE-PEG=95:5 (mol %) and a compound 3 to total lipid ratio of 1:10 (w/w). The mixture was stirred for four hours, thoroughly dried under nitrogen and left overnight under vacuum. HEPES buffer saline (HBS 0.01 M, pH=7.4) warmed to 60° C. was then added in order to rehydrate the dried film. The solutions were vortexed, stirred for 48 hours at room temperature and sonicated for two and half hours. The formulation was then centrifuged at 1000 rpm for 5 minutes to remove any free compound 3.
# CD-1 female nude mice (6-7 weeks, 7 mice per treatment group) were injected […] with human lung NCI-H460 cells (3×10^6 cells in 0.1 ml PBS) subcutaneously. Treatment of the mice with vehicle or compound 3 was initiated 5 days post-inoculation (size of tumours=20-40 mm^3) for 7-day cycles of five days followed by a 2 day break for the duration of the experiment (35 days). Mice were treated with 80 mg/kg/d for the first week followed by 40 mg/kg/d until the end of the experiment. The size of the tumours was measured over the course of the experiment using calipers, and the weight of the tumours was measured after the animals were sacrificed.
# The ability of compounds 3, 5, and 7 to inhibit large-cell lung carcinoma cell growth in vivo was tested in the mouse xenograft model as described in Example 27. The compounds were tested as Lutrol formulations (administered i.p.), lipid-based formulations micelles (administered i.v.), or water-based formulations (administered i.p.). The vehicle controls included Lutrol control (administered i.p.), lipid micelle control (administered i.v.), and water control (administered i.p.). Lutrol formulations contained 15% Lutrol and 10% DMSO. The composition of the lipid-based formulations and preparation of same was as described in Example 27 above.
# supercoiled plasmid DNA = test: In vitro DNA cleavage assay; format: biochemical; settings: 25 μM compound, 10 μM CuSO4, 100 μM ascorbic acid, 37° C., 30 minutes
# Description: Compound 3 was tested for its ability to cleave plasmid DNA in vitro in the presence of copper and the reducing agent ascorbic acid. Experiments were performed in a total of 20 μl, containing 10 mM NaH2PO4/Na2HPO4 buffer (pH 6.7), 1 μg of supercoiled plasmid DNA, 100 μM ascorbic acid, 25 μM drug compound (or vehicle), and 10 μM of CuSO4.5H20. The reaction mixture was incubated at 37° C. for 30 minutes, and 1 μl of 0.1 M EDTA was added to terminate the reaction. DNA loading buffer was added, and reactions were run at 80V for 80 minutes on a 1% agarose gel containing ethidium bromide.
# To determine whether ions other than copper could suffice, DNA cleavage reactions were also carried out in the presence of zinc or iron. Reactions were performed as above, in the presence of 25 μM of CuSO4.5H20, ZnCl2, or FeCl2.4H20. […] Note that copper alone in the presence of ascorbic acid can shift the ratio of supercoiled DNA to open circular DNA.
# To determine the ratios of compound to copper at which compound 3 was effective, reactions were performed as in FIG. 22A. The ratios of compound 3 to copper of 3:1, 2.5:1, 2:1, 1.5:1, and 1:1, as shown in FIG. 23 were achieved by maintaining the concentration of Cu constant at 10 μM, and varying the concentration of compound 3. The ratios of compound 3 to Cu of 1:1.5, 1:2, 1:2.5, and 1:3, were achieved by maintaining the concentration of compound 3 constant at 10 μM, and varying the concentration of copper.
# Other compounds of Formula I, compounds 5, 7, 9 and 13 were also tested for their ability to cleave DNA at a ratio of 2.5:1 to copper (FIG. 23). Ratios of compound 3:copper as indicated, plus concentrations of copper in the absence of compound 3 were used in the DNA cleavage assay as described above.
SMILES,Normal/cancer IC90 ratio [1],Sub-acute toxicity ([2]; 50 mg/Kg),Sub-acute toxicity ([2]; 100 mg/Kg),"IC50 ([3]; 6-7 days, Table 3) [nM]","IC50 ([3]; as Example 13, Table 7) [µg/mL]",cleavage of plasmid DNA (supercoiled plasmid DNA),also measured
"COc1cccc2c1C(=O)c1c(O)c3c(c(O)c1C2=O)C[C@@](O)(C(=O)CO)C[C@@H]3O[C@H]1C[C@H](N)[C@H](O)[C@H](C)O1 [Doxorubicin, doxorubicin, reference compound]",5.6,,,,,,
c1ccc2c(-c3nc4c5cccnc5c5ncccc5c4[nH]3)c(-c3ccncc3)[nH]c2c1 [Compound 11],,−,+,> 2500,> 2.5,,
Cc1[nH]c2ccc(Cl)cc2c1-c1nc2c3cccnc3c3ncccc3c2[nH]1 [Compound 5],,,,350,0.35,,"effect of exogenous copper on growth inhibition (HT-29 cells; 25 μM CuSO4, low concentrations of compound (less than 2 μM)): copper impaired the activity only at low concentrations; effect of exogenous zinc on growth inhibition (HT-29 cells; ZnCl2 (100 μM)): zinc impaired the growth inhibitory activities; tumour size and weight [4]: able to decrease the size (FIG. 16A) and weight (FIG. 16B) of tumours"
"Cc1[nH]c2ccccc2c1-c1nc2c3ccccc3c3ccccc3c2[nH]1 [Compound 13, reference compound]",,,,,,unable to cleave DNA,effect of exogenous metals on activity of the negative control (HT-29 cells; compound 13 25 μM): None of the metals had any effect; also recorded: Copper had no effect on growth inhibition
c1ccc2c(-c3nc4c5cccnc5c5ncccc5c4[nH]3)c(CN3CCCCC3)[nH]c2c1 [Compound 12],,−,+,280,0.28,capable of cleaving DNA,
"COc1cc([C@@H]2c3cc4c(cc3[C@@H](O[C@@H]3O[C@@H]5CO[C@@H](C)O[C@H]5[C@H](O)[C@H]3O)[C@H]3COC(=O)[C@H]23)OCO4)cc(OC)c1O [Etoposide, etoposide, reference compound]",>5.0,,,,,,

# From patent publication US8148392B2, “2-indolyl imidazo [4,5-d] phenanthroline derivatives and their use in the treatment of cancer” (Lorus Therapeutics Inc., priority 2005, dated 2012)
